We go through 7 molecules from paper PMC12455130, “Multifunctional molecular agent for tau-targeted combinational therapy of Alzheimer’s disease” (The Journal of Biological Chemistry, 2025).

The term IC50 denotes the concentration that gives 50% inhibition.

Data set [1] deals with T1, tau peptide R3 (Homo sapiens, UniProt P10636).
T1 construct: R3 (^306VQIVYK PVDLSK VTSKCG SLGNIH HKPGGG Q^336) and rabbit anti-tau antibody were purchased from MuJin; purchased MuJin
The data set is described as follows: ThS assay, heparin-induced R3 aggregation (kinetics and dose-response). In kind it is biochemical. The note with it: 80 μM compound, 15 μM R3, 3.8 μM heparin, 37 °C, 3 h. Here is the method:
The inhibition effect of 4GA–2GA on R3 aggregation was explored by thioflavin S (ThS) assay ([24]). In general, the kinetics of R3 aggregation in the absence or the presence of 4GA, 2GA was assessed by measuring the emission intensity of ThS at 500 nm, which reflects the amount of R3 aggregates. As the control experiments, the aggregation kinetics of 4ME and GA were also carried out. While induced by heparin, R3 aggregates rapidly at 37 °C, and the fluorescence of ThS reaches a maximum after an average time of 200 s (Fig. 4A). Based on the aforementioned conditions, the inhibitory ability of our synthetic compounds at three different concentrations (5, 10, and 40 μM) was tested.
Next, the dose–response inhibitory effects of our synthetic compounds on R3 aggregation were investigated. The detailed experimental operation was descripted in ESI. […] The apparent values of IC50 were calculated according to the dose−response curve.
Tau peptide R3 was adjusted to a concentration of 15 μM using 50 mM Tris−HCl buffer (pH 7.4), ThS (final concentration of 10 μM), and different amounts of 4GA, 2GA, 4ME, and GA (final concentration of 0, 5, 10, and 40 μM) as the aggregation inhibitor were added in1to the reaction mixture. Aggregation was induced by adding heparin to the solution (final concentration of 3.8 μM); the kinetics of each sample was immediately monitored by a fluorescence spectrophotometer with a 10-mm quartz cell at 440/500 nm (excitation/emission). A circulating water bath was necessary to maintain the temperature at 37 °C.
Tau peptide R3 was adjusted to a concentration of 15 μM using 50 mM Tris–HCl buffer (pH 7.4). Different amounts of 4GA, 2GA, 4ME, and GA (final concentration of 0, 1, 2, 4, 6, 10, 15, 20, 30, 40, 60, or 80 μM) as the aggregation inhibitors were added into the reaction mixture. Aggregation was induced by adding heparin to the solution (final concentration of 3.8 μM), After 3 h incubation at 37°C, ThS (final concentration of 10 μM) was added, and the fluorescence intensity at 440/500 nm (excitation/emission) was recorded on Hitachi F-7000 with a 10-mm quartz cell. The dose−response inhibitory effects of R3 aggregation were expressed by the aggregation percentage, which was calculated according to the following (Formula 4.3):(4.3) aggregation%=F-F0/Ft-F0×100
where F0 = fluorescence intensity of R3 monomer, Ft = fluorescence intensity of R3 aggregate, and F = fluorescence intensity of R3 aggregate in the presence of inhibitors. The IC50 values were also calculated according to the dose−response inhibitory effects.
Tau peptide R3 was adjusted to a concentration of 15 μM using Tris−HCl buffer (pH 7.4), and the synthetic compounds (4GA, 2GA, together with 4ME, GA as the comparison) at different concentrations, as aggregation inhibitor, were added into the reaction mixture separately. Aggregation was induced by heparin, and incubated at 37 °C for 3 h. By introducing fluorescence probe ThS, the dose−response inhibitory effects on R3 aggregation were recorded, according to normalized ThS fluorescence intensity (excitation: 440 nm, emission: 500 nm).
Figure S14. Inhibitory effects of N-substituted Azacrown on heparin-induced R3 aggregation, exermined by ThS fluorescence: 15 μM R3 and 3.8 μM heparin with cyclen, 1ME, 2ME, 3ME, and 4ME (80 μM) was incubated respectively at 37°C for 3h. 10 μM ThS was added to each of the solution, Spectra of ThS fluorescence were recorded at Ex440 nm.

Data set [2] deals with T1, tau peptide R3. The experiment in a line: ThS assay, Cu2+-promoted heparin-induced R3 aggregation. Conditions: R3 15 μM, Cu2+ 3.8 μM, compound 10 μM, heparin 3.8 μM, 3 h. The data set is classed as biochemical. The text has this: Metal ions, especially Cu^2+, are believed to be highly compatible with cysteine residues of tau peptide as a coordination center ([26]). Accompanied by the formation of intermolecular S–Cu–S bridging coordination bond, or intermolecular disulfide bond, these metal ions have been proven to promote tau aggregation ([27]). After confirming that 4GA and 2GA can effectively remove copper ions through coordination, we further explore their effects on R3 aggregation under the promotion of Cu^2+. […] Heparin was used to initiate the aggregation ([15]). […] As a comparison, the effects of the precursor compounds: 4ME, 3ME, 2ME, and 1ME, on Cu^2+-promoted R3 aggregation were also examined (Fig. S15).
Figure 5 Kinetic curves and TEM image of R3 aggregation with 4GA or 2GA.A, kinetic curves of the R3 (15 μM) aggregation monitored by ThS fluorescence assay in different conditions. B, ThS fluorescence intensity of R3 (15 μM) incubated for 3 h in different conditions. C, TEM image of R3 fibrils in different conditions. Negatively stained with uranyl acetate. Scale bar represents 200 nm. Final concentrations of R3, Cu^2+, and inhibitors are 15, 3.8, and 10 μM, respectively. All aggregations were initiated by heparin (3.8 μM). 2GA, (4,10-dimethyl-1,4,7,10-tetraazacyclododecane-1,7-diyl)bis((3,4,5-trihydroxyphenyl)methanone); 4GA, (1,4,7,10-tetraazacyclododecane-1,4,7,10-tetrayl)tetrakis((3,4,5-trihydroxyphenyl)methanone); TEM, transmission electron microscopy; ThS, thioflavin S.
The promotion of Cu^2+ on R3 aggregation was also inspected, similar to the aforementioned operation, unless that 3.8 μM Cu^2+ was also included, and using 50 mM Hepes (pH 7.4) as the buffer solution.
Fig. S15 ThS fluorescence intensity of R3 (15 µM) incubated for 3 h. Final concentrations of R3, Cu^2+, and compounds are 15, 3.8 and 10 µM, respectively. All aggregations were initiated by heparin (3.8 µM).

The next data set has as its system tau protein. Conditions: cited from earlier work.
Details of data set [3]: method as in PMID 19496588. Conditions: cited from earlier work.
The target of data set [4] is T1, tau peptide R3. More on the design: method as in PMID 23442089. Conditions: reported earlier; read-out: IC50 on R3 aggregation; cited from earlier work.

T1 sequence (P10636 623-653 limits assumed): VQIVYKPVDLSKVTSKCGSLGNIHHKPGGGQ

As for “1,4,7-trimethyl-1,4,7,10-tetraazacyclododecane [2ME]”, the “effect on heparin-induced R3 aggregation (ThS fluorescence at 500 nm)” value (shortened to “effect on heparin-induced R3 aggregation”) on tau peptide R3 [1] is given as “did not hinder the aggregation of R3 peptides”. For the same molecule, the “ThS fluorescence intensity of R3 aggregation in the presence of Cu2+” value (“ThS fluorescence intensity” below) at tau peptide R3 [2] is on record as “only to a level close to the case of R3 aggregation in the absence of Cu^2+”.

For `CN1CCNCCN(C)CCN(C)CC1` [3ME, 1,4,7-trimethyl-1,4,7,10-tetraazacyclododecane], at tau peptide R3 [1], the “effect on heparin-induced R3 aggregation” value is recorded as “did not hinder the aggregation of R3 peptides”. Also, the “ThS fluorescence intensity” value on tau peptide R3 [2] is on record as “only to a level close to the case of R3 aggregation in the absence of Cu^2+”.

In the case of `Nc1nc(=O)c2nc(CNc3ccc(C(=O)N[C@@H](CCC(=O)O)C(=O)O)cc3)cnc2[nH]1` [folic acid], the “binding ability to tau protein” value in the data set with tau protein was 230000 M⁻¹.

As for `C=C(C)[C@@H]1CCC(C)=C[C@H]1c1c(O)cc(CCCCC)cc1O` [cannabidiol], the “binding ability to tau protein” value in the data set with tau protein was 42100 M⁻¹.

Turning to `CN1CCNCCNCCNCC1` [1ME, 1-methyl-1,4,7,10-tetraazacyclododecane], the “effect on heparin-induced R3 aggregation” value on tau peptide R3 [1] is reported as “did not hinder the aggregation of R3 peptides”. On tau peptide R3 [2], the “ThS fluorescence intensity” value was “only to a level close to the case of R3 aggregation in the absence of Cu^2+”.

For the molecule `C1CNCCNCCNCCN1` [cyclen, 1,4,7,10-tetraazacyclododecane], in data set [3], the “log KCu-cyclen (thermodynamic stability)” value was 24.8.

For the molecule tannic acid, the IC50 at tau peptide R3 [4] was 3.5 µM.
